Reference: patent publication US12077503B2, “Substituted cyclic amides and their use as herbicides” (FMC CORPORATION, priority 2015, dated 2024)

Tests used:
Assay type in all cases: in vivo
[1] = system: barnyardgrass (Echinochloa crus-galli); assay: Test A preemergence; settings: Echinochloa crus-galli, pre-emergence, 240 h, 0 to 100 scale where 0 is no effect and 100 is complete control, read-out: Barnyardgrass plant response rating
Method in brief: (§1)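 Greenhouse, ~10 d after spray; visual injury vs untreated controls, 0 = no effect, 100 = complete control. Preemergence: directed soil spray over planted seeds. Postemergence: plants 2–10 cm, 1–2 leaf stage. Loam/sand blend. Compound in non-phytotoxic solvent with surfactant.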

[2] = system: giant foxtail (Setaria faberii); assay: Test A preemergence; settings: Setaria faberi, pre-emergence, 240 h, 0 to 100 scale where 0 is no effect and 100 is complete control, read-out: Foxtail, Giant plant response rating
Method in brief: as §1

[3] = system: pigweed (Amaranthus retroflexus); assay: Test A preemergence; settings: Amaranthus retroflexus, pre-emergence, 240 h, 0 to 100 scale where 0 is no effect and 100 is complete control, read-out: Pigweed plant response rating
[4] = system: Kochia (Kochia scoparia); assay: Test A preemergence; settings: Bassia scoparia, pre-emergence, 240 h, 0 to 100 scale where 0 is no effect and 100 is complete control, read-out: Kochia plant response rating
Method in brief: as §1

[5] = system: ragweed (common ragweed, Ambrosia elatior); assay: Test A preemergence; settings: Ambrosia artemisiifolia, pre-emergence, 240 h, 0 to 100 scale where 0 is no effect and 100 is complete control, read-out: Ragweed plant response rating
Method in brief: as §1

[6] = system: ryegrass, Italian (Italian ryegrass, Lolium multiflorum); assay: Test A preemergence; settings: Lolium multiflorum, pre-emergence, 240 h, 0 to 100 scale where 0 is no effect and 100 is complete control, read-out: Ryegrass, Italian plant response rating
Method in brief: as §1

[7] = system: barnyardgrass (Echinochloa crus-galli); assay: Test B flooded paddy test; settings: Echinochloa crus-galli, 250 g ai/ha, Flood; 0 to 100 scale where 0 is no effect and 100 is complete control; read-out: Barnyardgrass plant response rating
Method in brief: (§2)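 Evaluation by eye, against controls, occurred 13–15 d post-treatment in a greenhouse, using a 0 (no effect) to 100 (complete control) scale. Application was into the paddy water, 3 cm deep over the soil, on 2-leaf plants.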

[8] = system: sedge, umbrella (small-flower umbrella sedge, Cyperus difformis); assay: Test B flooded paddy test; settings: Cyperus difformis, 250 g ai/ha, Flood; 0 to 100 scale where 0 is no effect and 100 is complete control; read-out: Sedge, Umbrella plant response rating
Method in brief: as §2

[9] = system: rice (Oryra sativa); assay: Test B flooded paddy test; settings: Oryza sativa, 250 g ai/ha, Flood; 0 to 100 scale where 0 is no effect and 100 is complete control; read-out: Rice plant response rating
Method in brief: as §2

[10] = system: ducksalad (Heteranthera limosa); assay: Test B flooded paddy test; settings: Heteranthera limosa, 250 g ai/ha, Flood; 0 to 100 scale where 0 is no effect and 100 is complete control; read-out: Ducksalad plant response rating
Method in brief: as §2

[11] = system: barnyardgrass (Echinochloa crus-galli); assay: Test A postemergence; settings: Echinochloa crus-galli, post-emergence, 240 h, read-out: Barnyardgrass plant response rating (0 to 100 scale)
Method in brief: as §1

[12] = system: giant foxtail (Setaria faberii); assay: Test A postemergence; settings: Setaria faberi, post-emergence, 240 h, read-out: Foxtail, Giant plant response rating (0 to 100 scale)
Method in brief: as §1

[13] = system: corn (Zea mays); assay: Test A postemergence; settings: Zea mays, post-emergence, 240 h, read-out: Corn plant response rating (0 to 100 scale)
Method in brief: as §1

[14] = system: blackgrass (Alopecurus myosuroides); assay: Test A postemergence; settings: Alopecurus myosuroides, post-emergence, 240 h, read-out: Blackgrass plant response rating (0 to 100 scale)
Method in brief: as §1

[15] = system: pigweed (Amaranthus retroflexus); assay: Test A postemergence; settings: Amaranthus retroflexus, post-emergence, 240 h, read-out: Pigweed plant response rating (0 to 100 scale)
Method in brief: as §1

[16] = system: wheat (Triticum aestivum); assay: Test A postemergence; settings: Triticum aestivum, post-emergence, 240 h, Postemergence, 31 g ai/ha; 0 is no effect, 100 is complete control; read-out: Wheat plant response rating (0 to 100 scale)
Method in brief: as §1

[17] = system: Galium (catchweed bedstraw, Galium aparine); assay: Test A postemergence; settings: Galium, post-emergence, 240 h, read-out: Galium plant response rating (0 to 100 scale)
Method in brief: as §1

[18] = system: Kochia (Kochia scoparia); assay: Test A postemergence; settings: Bassia scoparia, post-emergence, 240 h, read-out: Kochia plant response rating (0 to 100 scale)
Method in brief: as §1

[19] = system: ragweed (common ragweed, Ambrosia elatior); assay: Test A postemergence; settings: Ambrosia artemisiifolia, post-emergence, 240 h, read-out: Ragweed plant response rating (0 to 100 scale)
Method in brief: as §1

[20] = system: ryegrass, Italian (Italian ryegrass, Lolium multiflorum); assay: Test A postemergence; settings: Lolium multiflorum, post-emergence, 240 h, read-out: Ryegrass, Italian plant response rating (0 to 100 scale)
Method in brief: as §1

[21] = 125 g ai/ha, preemergence, visual injury rating, approximately 10 d
[22] = 125 g ai/ha, postemergence, visual injury vs untreated controls after approx. 10 d, 0 = no effect, 100 = complete control
[23] = Postemergence, 31 g ai/ha, 0 is no effect, 100 is complete control

**Q.** `CN1C[C@H](c2ccc(Cl)c(F)c2)[C@@H](C(=O)Nc2ccc(F)c(F)c2F)C1=O` [Compound 1266] was tested. Which pest or weed control at 31 g/ha ([1]; 31 g ai/ha, Preemergence) did it give?
**A.** 80%

**Q.** What about the pest or weed control at 125 g/ha [1, 21] of the same compound?
**A.** 90%

**Q.** What about the pest or weed control at 31 g/ha ([2]; 31 g ai/ha, Preemergence) of the same compound?
**A.** 90%

**Q.** And the pest or weed control at 125 g/ha [2, 21]?
**A.** 90%

**Q.** And the pest or weed control at 31 g/ha ([3]; 31 g ai/ha, Preemergence)?
**A.** 20%

**Q.** And the pest or weed control at 125 g/ha [3, 21]?
**A.** 80%

**Q.** And the pest or weed control at 31 g/ha ([4]; 31 g ai/ha, Preemergence)?
**A.** 40%

**Q.** What about the pest or weed control at 125 g/ha [4, 21] of the same compound?
**A.** 80%

**Q.** What about the pest or weed control at 31 g/ha ([5]; 31 g ai/ha, Preemergence) of the same compound?
**A.** 20%

**Q.** What about the pest or weed control at 125 g/ha [5, 21] of the same compound?
**A.** 60%

**Q.** And the pest or weed control at 31 g/ha ([6]; 31 g ai/ha, Preemergence)?
**A.** 0%

**Q.** And the pest or weed control at 125 g/ha [6, 21]?
**A.** 40%

**Q.** And the pest or weed control at 250 g/ha [7]?
**A.** 60%

**Q.** What about the pest or weed control at 250 g/ha [8] of the same compound?
**A.** 0%

**Q.** What about the pest or weed control at 250 g/ha [9] of the same compound?
**A.** 50%

**Q.** And the pest or weed control at 250 g/ha [10]?
**A.** 100%

**Q.** And the pest or weed control at 125 g/ha [11, 22]?
**A.** 90%

**Q.** What about the pest or weed control at 31 g/ha [11, 23] of the same compound?
**A.** 90%

**Q.** What about the pest or weed control at 125 g/ha [12, 22] of the same compound?
**A.** 80%

**Q.** What about the pest or weed control at 31 g/ha [12, 23] of the same compound?
**A.** 80%

**Q.** And the plant injury at 125 g/ha [13, 22]?
**A.** 90%

**Q.** What about the plant injury at 31 g/ha [13, 23] of the same compound?
**A.** 90%

**Q.** And the pest or weed control at 125 g/ha [14, 22]?
**A.** 60%

**Q.** And the pest or weed control at 31 g/ha [14, 23]?
**A.** 20%

**Q.** What about the pest or weed control at 125 g/ha [15, 22] of the same compound?
**A.** 70%

**Q.** And the pest or weed control at 31 g/ha [15, 23]?
**A.** 20%

**Q.** And the plant injury at 31 g/ha [16]?
**A.** 0%

**Q.** What about the pest or weed control at 125 g/ha [17, 22] of the same compound?
**A.** 60%

**Q.** What about the pest or weed control at 31 g/ha [17, 23] of the same compound?
**A.** 50%

**Q.** And the pest or weed control at 125 g/ha [18, 22]?
**A.** 70%

**Q.** What about the pest or weed control at 31 g/ha [18, 23] of the same compound?
**A.** 30%

**Q.** And the pest or weed control at 125 g/ha [19, 22]?
**A.** 50%

**Q.** And the pest or weed control at 31 g/ha [19, 23]?
**A.** 0%

**Q.** And the pest or weed control at 125 g/ha [20, 22]?
**A.** 70%

**Q.** And the pest or weed control at 31 g/ha [20, 23]?
**A.** 20%
